From ChEMBL document CHEMBL5725474, “Carbazole compounds useful as bromodomain inhibitors” (2018)

Biological target: Bromodomain-containing protein 4 (Homo sapiens, UniProt O60885)
Test: Time Resolved Fluorescence Resonance Energy Transfer (TR-FRET) Assay: The binding of compounds to bromodomain BRD4 (44-168), BRD4 (333-460), and BRD4 (1-477 or 44-460) was assessed using a time resolved fluorescent resonance energy transfer binding assay (1), that measures the binding of a fluorescently labeled probe molecule to the bromodomain protein. The bromodomain protein, fluorescent probe molecule (either a biotinylated histone peptide or a fluorescently labeled small molecule), and dose-responsed test compound are incubated together to reach thermodynamic equilibrium. In the absence of a test compound, the bromodomain and small molecule are bound, resulting in a high fluorescent signal. In the presence of a sufficient concentration of inhibitor, this intercation is disrupted resulting in a loss of fluorescent resonance energy transfer.

Cc1noc(C)c1-c1cc(C(N)=O)c2c(c1)c1ccc(N3CCOCC3)cc1n2CC1CC1 was tested, and the IC50 was less than 5000 nM.

Compound Cc1noc(C)c1-c1cc(C(N)=O)c2c(c1)c1ccc(C(C)(C)O)cc1n2S(C)(=O)=O has an IC50 of less than 50 nM.

Compound COC1CN(C(=O)c2ccc3c4cc(-c5c(C)noc5C)cc(C(N)=O)c4n(S(=O)(=O)C4CC4)c3c2)C1 has an IC50 of less than 50 nM.

Work on Cc1noc(C)c1-c1cc(C(N)=O)c2c(c1)c1ccc(N3CCCC3=O)cc1n2CC1CC1 yielded an IC50 of less than 50 nM.

Cc1noc(C)c1-c1cc(C(=O)NCC2CC2)c2c(c1)c1c(S(C)(=O)=O)cccc1n2CC1CC1 was tested, and the IC50 was less than 500 nM.

In the case of COC(=O)Nc1ccc2c3cc(-c4c(C)noc4C)cc(C(N)=O)c3n(CC3CC3)c2c1, the IC50 is reported as less than 500 nM.

Compound Cc1noc(C)c1-c1cc(C(N)=O)c2c(c1)c1ccc(S(C)(=O)=O)cc1n2S(=O)(=O)C1CC1 has an IC50 of less than 500 nM.

In the case of Cc1noc(C)c1-c1cc(C(N)=O)c2c(c1F)c1ccc(C(=O)N3C[C@@H](C)O[C@@H](C)C3)cc1n2CC1CC1, the IC50 is reported as less than 50 nM.
